Results on four molecules are retold here after patent US12637462B2, “Integrin inhibitor and uses thereof” (Pliant Therapeutics, Inc., priority 2020, dated 2026).

Data set [1] is described as follows: Approximate solubility at RT by stepwise solvent addition. The format is physicochemical. On the procedure:
The approximate solubility of (S)-4-((2-methoxyethyl)(4-(5,6,7,8-tetrahydro-1,8-naphthyridin-2-yl)butyl)amino)-2-(quinazolin-4-ylamino)butanoic acid was determined at RT. Approximately 2 mg of solids were added into a 3-mL glass vial. Different solvents were then added stepwise (50-50-200-700 μL for each step) into the vials and stirred until the solids were dissolved or a total volume of 1 mL was reached.
The approximate solubility of Form I was determined at RT. Approximately 2 mg of solids were added into 3-mL glass vials. Different solvents were then added stepwise (50-50-200-700 μL for each step) into the vials until the solids were dissolved or a total volume of 1 mL was reached.

Data set [2] in a line: Heating experiment, solid form checked by XRPD. The format is physicochemical. The following applies: for solid form after heating: after heating to 150° C.
The nature of data set [3]: Dynamic vapor sorption (DVS). To be noted: 4.5 g scale batch. It counts as physicochemical. On the procedure:
DVS was measured via a SMS (Surface Measurement Systems) DVS Intrinsic. The relative humidity at 25° C. were calibrated against the deliquescence point of LiCl, Mg(NO3)2 and KCl.
Form I on 4.5 g scale was obtained via slurrying 4.5 g amorphous freeform of (S)-4-((2-methoxyethyl)(4-(5,6,7,8-tetrahydro-1,8-naphthyridin-2-yl)butyl)amino)-2-(quinazolin-4-ylamino)butanoic acid and an equimolar amount of 85% phosphoric acid (1.05 g) in anhydrous EtOH (≥99.7%) (112 mL) at RT and seeded with around 1 wt % Form I seed. The product was analyzed by XRPD, DSC, TGA, DVS, ^1H NMR, and HPLC. […] Based on HPLC/IC analysis, the molar ratio of API:phosphoric acid was 1:1.

The target of data set [4] is recombinant human integrin αvβ6 (Homo sapiens, UniProt P06756+P18564). Briefly: Solid phase integrin αvβ6 binding assay. To be noted: TGFβ1 LAP binding to coated integrin, four-parameter logistic regression; read-out: IC50 for αvβ6 integrin inhibition. On the procedure: Microplates were coated with recombinant human integrin αvβ6 (2 μg/mL) in PBS (100 μL/well 25° C., overnight). The coating solution was removed, washed with wash buffer (0.05% Tween 20; 0.5 mM MnCl2; in 1×TBS). The plate was blocked with 200 μL/well of Block Buffer (1% BSA; 5% sucrose; 0.5 mM MnCl2; in 1×TBS) at 37° C. for 2 h. Dilutions of testing compounds and recombinant TGFβ1 LAP (0.67 μg/mL) in binding buffer (0.05% BSA; 2.5% sucrose; 0.5 mM MnCl2; in 1×TBS) were added. The plate was incubated for 2 hours at 25° C., washed, and incubated for 1 hour with Biotin-Anti-hLAP. Bound antibody was detected by peroxidase-conjugated streptavidin. The IC50 values for testing compounds were calculated by a four-parameter logistic regression. The IC50 value obtained for αvβ6 integrin inhibition for (S)-4-((2-methoxyethyl)(4-(5,6,7,8-tetrahydro-1,8-naphthyridin-2-yl)butyl)amino)-2-(quinazolin-4-ylamino)butanoic acid was <50 nM.
Chain of recombinant human integrin αvβ6 (P06756 31-992 limits assumed): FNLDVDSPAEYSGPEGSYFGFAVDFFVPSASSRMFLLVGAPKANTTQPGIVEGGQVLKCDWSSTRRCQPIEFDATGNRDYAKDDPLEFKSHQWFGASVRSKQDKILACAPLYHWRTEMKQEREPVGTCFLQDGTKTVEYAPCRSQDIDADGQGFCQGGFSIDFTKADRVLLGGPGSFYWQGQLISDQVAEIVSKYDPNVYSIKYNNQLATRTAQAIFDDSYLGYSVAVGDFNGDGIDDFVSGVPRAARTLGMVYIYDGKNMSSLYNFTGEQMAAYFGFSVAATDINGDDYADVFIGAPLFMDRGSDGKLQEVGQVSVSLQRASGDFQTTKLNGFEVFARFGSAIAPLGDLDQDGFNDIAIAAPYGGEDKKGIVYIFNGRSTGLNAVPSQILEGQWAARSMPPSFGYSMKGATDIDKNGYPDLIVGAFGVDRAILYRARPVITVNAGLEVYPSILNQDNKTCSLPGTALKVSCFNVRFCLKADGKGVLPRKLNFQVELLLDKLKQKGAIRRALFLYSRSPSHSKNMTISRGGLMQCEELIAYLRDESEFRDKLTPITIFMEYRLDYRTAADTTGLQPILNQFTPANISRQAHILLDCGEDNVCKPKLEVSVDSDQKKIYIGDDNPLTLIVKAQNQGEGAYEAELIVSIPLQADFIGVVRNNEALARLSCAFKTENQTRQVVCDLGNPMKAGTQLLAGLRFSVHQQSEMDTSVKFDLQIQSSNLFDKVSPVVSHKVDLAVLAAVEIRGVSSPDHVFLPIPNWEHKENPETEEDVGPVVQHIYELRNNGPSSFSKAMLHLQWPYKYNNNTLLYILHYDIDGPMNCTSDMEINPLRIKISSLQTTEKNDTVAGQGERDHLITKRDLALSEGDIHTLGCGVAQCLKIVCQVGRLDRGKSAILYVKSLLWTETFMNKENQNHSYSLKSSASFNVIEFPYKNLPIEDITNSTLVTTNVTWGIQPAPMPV
Chain of recombinant human integrin αvβ6 (P18564 22-707 limits assumed): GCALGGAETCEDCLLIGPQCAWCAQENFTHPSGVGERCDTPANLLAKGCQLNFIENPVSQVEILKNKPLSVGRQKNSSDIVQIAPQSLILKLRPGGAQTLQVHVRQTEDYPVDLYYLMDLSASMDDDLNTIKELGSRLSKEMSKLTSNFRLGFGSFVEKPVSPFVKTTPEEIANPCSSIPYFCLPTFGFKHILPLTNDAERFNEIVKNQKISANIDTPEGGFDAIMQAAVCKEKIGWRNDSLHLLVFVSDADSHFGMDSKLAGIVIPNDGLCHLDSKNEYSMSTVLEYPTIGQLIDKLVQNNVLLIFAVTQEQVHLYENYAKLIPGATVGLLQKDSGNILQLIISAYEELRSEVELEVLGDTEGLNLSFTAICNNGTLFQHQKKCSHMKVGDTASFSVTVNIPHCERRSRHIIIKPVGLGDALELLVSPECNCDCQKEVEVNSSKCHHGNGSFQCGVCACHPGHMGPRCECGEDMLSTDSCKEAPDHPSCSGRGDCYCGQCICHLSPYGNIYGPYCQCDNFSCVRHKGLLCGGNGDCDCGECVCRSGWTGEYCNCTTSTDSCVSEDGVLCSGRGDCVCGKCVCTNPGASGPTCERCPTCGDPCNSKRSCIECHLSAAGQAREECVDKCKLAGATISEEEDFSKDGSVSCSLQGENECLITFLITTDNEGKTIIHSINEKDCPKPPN

Molecules are shown by their SMILES. Values after ≈ are worked out from the molar mass of the structure shown. Where two headings read alike, the source gives them in different places. Where only a bound is given, the exact number is not on record here.

For `COCCN(CCCCc1ccc2c(n1)NCCC2)CC[C@H](Nc1ncnc2ccccc12)C(=O)O` [Form I, (S)-4-((2-methoxyethyl)(4-(5,6,7,8-tetrahydro-1,8-naphthyridin-2-yl)butyl)amino)-2-(quinazolin-4-ylamino)butanoic acid], the Solubility result in data set [1] (1,4-Dioxane) is on record as “S < 1.7 mg/mL”; in data set [1] (2-MeTHF), “S < 2.1 mg/mL”; in data set [1] (ACN) it was “S < 1.6 mg/mL”; in data set [1] (Acetone) it was “S < 1.9 mg/mL”; in data set [1] (CPME) it was “S < 1.9 mg/mL”; in data set [1] (DCM), “S < 2.8 mg/mL”. Besides, the Solubility entry is recorded as “S < 1.7 mg/mL” in data set [1] (EtOAc); “S > 56.0 mg/mL” in data set [1] (H2O); “S < 2.2 mg/mL” in data set [1] (IPA); “S < 2.6 mg/mL” in data set [1] (IPAc); “S < 2.4 mg/mL” in data set [1] (MEK); “S < 2.8 mg/mL” in data set [1] (MIBK). The Solubility result in data set [1] (MTBE) was “S < 2.1 mg/mL”; in data set [1] (MeOH) it was “S > 52.0 mg/mL”; in data set [1] (THF) it was “S < 1.6 mg/mL”; in data set [1] (Toluene) it was “S < 2.2 mg/mL”; in data set [1] (n-Heptane), “S < 2.1 mg/mL”. In addition, the “form change after heating” value in data set [2] (after heating to 110° C.) is “No form changes”. Further, the “solid form after heating” value in data set [2] is “amorphous”. Also, the water absorption in data set [3] (25° C./80% RH) stood at 16.4%. In data set [3] (after DVS test), the “state after the DVS test” value is “deliquescent”.

In the case of `COCCN(CCCCc1ccc2c(n1)NCCC2)CC[C@H](Nc1ncnc2ccccc12)C(=O)O` [Form II, (S)-4-((2-methoxyethyl)(4-(5,6,7,8-tetrahydro-1,8-naphthyridin-2-yl)butyl)amino)-2-(quinazolin-4-ylamino)butanoic acid], in data set [2], the “solid form after heating” value is reported as “amorphous”.

Consider `COCCN(CCCCc1ccc2c(n1)NCCC2)CC[C@H](Nc1ncnc2ccccc12)C(=O)O` [(S)-4-((2-methoxyethyl)(4-(5,6,7,8-tetrahydro-1,8-naphthyridin-2-yl)butyl)amino)-2-(quinazolin-4-ylamino)butanoic acid], for which the Solubility in data set [1] (ACN, organic solvent or mixture, thermodynamic from solid, ACN, read-out: Solubility) is 1900 to 6300 µg/mL (≈ 3.86 to 12.8 mM); in data set [1] (CPME, organic solvent or mixture, thermodynamic from solid, CPME, read-out: Solubility), 2600 to 8700 µg/mL (≈ 5.28 to 17.7 mM); in data set [1] (EtOAc, organic solvent or mixture, thermodynamic from solid, EtOAc, read-out: Solubility), 2100 to 7000 µg/mL (≈ 4.26 to 14.2 mM); in data set [1] (IPAc, organic solvent or mixture, thermodynamic from solid, IPAc, read-out: Solubility) it was 2300 to 7700 µg/mL (≈ 4.67 to 15.6 mM); in data set [1] (MIBK, organic solvent or mixture, thermodynamic from solid, MIBK, read-out: Solubility), 2500 to 8300 µg/mL (≈ 5.07 to 16.8 mM); in data set [1] (MTBE, organic solvent or mixture, thermodynamic from solid, MTBE, read-out: Solubility), under 2000 µg/mL. Also, the Solubility in data set [1] (MeOH, organic solvent or mixture, thermodynamic from solid, MeOH, read-out: Solubility) was over 52000 µg/mL; in data set [1] (Toluene, organic solvent or mixture, thermodynamic from solid, Toluene, read-out: Solubility) it was 1900 to 6300 µg/mL (≈ 3.86 to 12.8 mM); in data set [1] (n-Heptane, organic solvent or mixture, thermodynamic from solid, n-Heptane, read-out: Solubility), under 2200 µg/mL. Further, the half-maximal inhibitory concentration (IC50) in data set [4] is under 50 nM.

As for `COCCN(CCCCc1ccc2c(n1)NCCC2)CC[C@H](Nc1ncnc2ccccc12)C(=O)O` [(S)-4-((2-methoxyethyl)(4-(5,6,7,8-tetrahydro-1,8-naphthyrid] [(S)-4-((2-methoxyethyl)(4-(5,6,7,8-tetrahydro-1,8-naphthyridin-2-yl)butyl)amino)-2-(quinazolin-4-ylamino)butanoic acid], the Solubility entry in data set [1] (1,4-Dioxane) is recorded as “S > 42.0 mg/mL”; in data set [1] (DCM) it was “S > 38.0 mg/mL”; in data set [1] (DMSO) it was “S > 42.0 mg/mL”; in data set [1] (EtOH) it was “S > 44.0 mg/mL”; in data set [1] (IPA), “S > 48.0 mg/mL”; in data set [1] (THF), “S > 32.0 mg/mL”.
